Reference: publication doi:10.1101/2020.09.01.277368v1, “Disulfiram inhibits M. tuberculosis growth by altering methionine pool, redox status and host-immune response” (biorxiv, 2020)

Legend:
[1] = molecular target: T1, MetA (HSAT, homoserine acetyl transferase, Rv3341) (Mycobacterium tuberculosis, UniProt P9WJY9); assay: endpoint DTNB CoA release assay; format: biochemical; settings: read-out: % inhibition at 100 μM
T1 construct: gene metXA

[2] = molecular target: T1, MetA (HSAT, homoserine acetyl transferase, Rv3341); assay: ThermoFluor, SYPRO Orange; format: binding

T1 sequence (P9WJY9 whole entry, looked up): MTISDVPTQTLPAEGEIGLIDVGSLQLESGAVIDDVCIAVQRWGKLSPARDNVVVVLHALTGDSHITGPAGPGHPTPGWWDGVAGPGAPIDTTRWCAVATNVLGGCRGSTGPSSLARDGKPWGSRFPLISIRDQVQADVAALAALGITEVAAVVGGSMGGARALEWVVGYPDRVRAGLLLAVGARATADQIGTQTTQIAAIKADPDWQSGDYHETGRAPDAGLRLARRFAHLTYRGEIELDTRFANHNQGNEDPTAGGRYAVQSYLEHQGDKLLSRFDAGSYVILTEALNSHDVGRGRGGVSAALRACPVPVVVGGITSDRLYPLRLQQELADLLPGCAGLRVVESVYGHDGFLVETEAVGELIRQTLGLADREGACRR

SMILES | inhibition at 100 µM [1] | Kd [2]
CCN(CC)C(=S)SSC(=S)N(CC)CC [DIS, disulfiram] | > 50% | 52.7 µM
CN(C)C(=S)SSC(=S)N(C)C [NSC1771, thiram] | > 50% | –
